Assay: Inhibition of Cyclophilin D (unknown origin) activity preincubated for 15 mins followed Suc-AAPF-pNA substrate addition by chymotrypsin coupled based spectrophotometry assay

| Ki [µM] | Structure (SMILES) |
| --- | --- |
| 4.9 | Nc1ccc(CNC(=O)NCC(=O)N2CCCC2)cc1 |
| 2.6 | CCOC(=O)CNC(=O)NCc1ccc(NC(C)=O)cc1 |
